Tests used:
[1] = target: T1, Itk (Homo sapiens, UniProt Q08881); assay: ITK Inhibition Assay (Radiometric), radioactive-phosphate incorporation; format: biochemical; details: enzyme inhibition data (Ki), Table 11; radiometric or UV assay not stated
T1 sequence (Q08881 1-620): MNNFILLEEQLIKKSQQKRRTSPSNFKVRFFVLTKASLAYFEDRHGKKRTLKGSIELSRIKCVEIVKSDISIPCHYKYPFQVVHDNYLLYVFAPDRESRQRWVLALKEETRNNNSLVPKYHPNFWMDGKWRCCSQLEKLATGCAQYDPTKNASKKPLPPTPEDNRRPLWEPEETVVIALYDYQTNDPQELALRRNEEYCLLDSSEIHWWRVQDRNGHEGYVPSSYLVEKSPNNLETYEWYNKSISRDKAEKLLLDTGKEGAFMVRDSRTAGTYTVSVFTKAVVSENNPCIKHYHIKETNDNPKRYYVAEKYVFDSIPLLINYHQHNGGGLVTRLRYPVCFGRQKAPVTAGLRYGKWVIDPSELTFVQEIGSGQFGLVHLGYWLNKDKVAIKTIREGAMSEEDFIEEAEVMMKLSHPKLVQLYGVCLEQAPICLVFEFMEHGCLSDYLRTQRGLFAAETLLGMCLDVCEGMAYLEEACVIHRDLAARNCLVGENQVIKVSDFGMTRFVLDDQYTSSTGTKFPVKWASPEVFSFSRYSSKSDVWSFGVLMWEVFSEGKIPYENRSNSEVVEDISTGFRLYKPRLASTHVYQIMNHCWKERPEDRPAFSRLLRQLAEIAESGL
In short: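 Radiometric 33P incorporation into SAM68 peptide (D332-443) with filter capture and scintillation counting; 10 min pre-incubation then 10 min reaction at 25° C. IC50 format: 30 nM Itk, 15 μM ATP, 2 μM peptide, HEPES pH 7.5. Ki(app) format: 50 nM Itk, 7.5 μM ATP, 3 μM peptide, MOPS pH 7.0.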

[2] = target: c-Met (Homo sapiens, UniProt P08581); assay: c-Met Inhibition Assay, coupled enzyme system; format: biochemical; details: enzyme inhibition data (Ki), Table 11
In short: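 Pyruvate kinase/lactate dehydrogenase-coupled NADH assay in HEPES pH 7.5 with 80 nM c-Met, 200 μM ATP and 10 μM polyGluTyr at 30° C. Compound (0.006–12.5 μM final, 12-point) preincubated 10 min before ATP start; rates over 10 min gave Ki.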

Chain of c-Met (P08581 25-1390): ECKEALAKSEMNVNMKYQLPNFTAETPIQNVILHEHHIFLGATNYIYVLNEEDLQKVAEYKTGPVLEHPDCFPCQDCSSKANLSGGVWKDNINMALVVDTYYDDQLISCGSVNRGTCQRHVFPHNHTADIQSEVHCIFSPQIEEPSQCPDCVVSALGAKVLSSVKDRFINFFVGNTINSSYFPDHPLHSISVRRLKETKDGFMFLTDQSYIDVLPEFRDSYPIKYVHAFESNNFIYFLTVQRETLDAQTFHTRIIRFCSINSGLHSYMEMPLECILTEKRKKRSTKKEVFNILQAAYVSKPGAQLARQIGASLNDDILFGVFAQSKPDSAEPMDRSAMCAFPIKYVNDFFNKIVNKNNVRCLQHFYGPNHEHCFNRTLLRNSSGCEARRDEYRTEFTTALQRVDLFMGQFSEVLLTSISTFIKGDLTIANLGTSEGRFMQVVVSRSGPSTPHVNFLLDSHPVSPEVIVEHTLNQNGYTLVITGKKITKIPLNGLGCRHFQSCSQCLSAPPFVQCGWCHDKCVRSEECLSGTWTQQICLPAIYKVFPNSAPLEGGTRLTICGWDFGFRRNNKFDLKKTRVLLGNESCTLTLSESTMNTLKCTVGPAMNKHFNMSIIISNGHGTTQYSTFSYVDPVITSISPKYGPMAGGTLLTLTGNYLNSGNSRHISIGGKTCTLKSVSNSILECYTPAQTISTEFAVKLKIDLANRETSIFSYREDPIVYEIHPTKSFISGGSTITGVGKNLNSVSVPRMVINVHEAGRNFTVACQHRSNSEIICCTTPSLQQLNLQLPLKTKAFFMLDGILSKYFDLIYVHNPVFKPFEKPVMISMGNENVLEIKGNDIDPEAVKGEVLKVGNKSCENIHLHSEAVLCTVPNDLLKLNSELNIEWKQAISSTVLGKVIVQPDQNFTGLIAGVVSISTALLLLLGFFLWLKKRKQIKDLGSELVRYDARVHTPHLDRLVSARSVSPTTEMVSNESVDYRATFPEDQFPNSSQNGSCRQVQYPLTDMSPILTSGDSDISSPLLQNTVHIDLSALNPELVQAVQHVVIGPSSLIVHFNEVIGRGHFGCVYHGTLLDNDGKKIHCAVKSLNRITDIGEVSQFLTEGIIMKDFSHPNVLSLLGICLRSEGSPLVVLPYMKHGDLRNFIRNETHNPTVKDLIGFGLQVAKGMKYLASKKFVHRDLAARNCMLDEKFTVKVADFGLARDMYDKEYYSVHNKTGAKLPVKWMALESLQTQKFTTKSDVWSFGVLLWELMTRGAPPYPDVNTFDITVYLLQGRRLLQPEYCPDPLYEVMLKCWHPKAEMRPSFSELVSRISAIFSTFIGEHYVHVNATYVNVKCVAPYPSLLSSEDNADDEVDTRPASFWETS

Compound	Ki [1] [nM]	Ki [2] [nM]
COc1ccc(-c2cnc3c(C#N)c(N)nn3c2)cc1 [Compound V-2]	500 to 5000	500 to 5000
COc1ccncc1-c1cnc2c(-c3ccccn3)c(N)nn2c1 [Compound V-22]	500 to 5000	< 500
CC(C)N1CCN(c2ccc(-c3cnc4c(-c5ccccn5)c(N)nn4c3)cc2)CC1 [Compound V-51]	< 500	< 500
CN1CCN(C(=O)c2cccc(-c3cnc4c(-c5ccccn5)c(N)nn4c3)c2)CC1 [Compound V-55]	500 to 5000	< 500
Nc1nn2cc(N3CCOCC3)cnc2c1-c1ccccn1 [Compound V-57]	500 to 5000	< 500
CCN1CCN(C(=O)c2ccc(-c3cnc4c(-c5ccccn5)c(N)nn4c3)nc2)CC1 [Compound V-63]	< 500	< 500
CN(C)CCNC(=O)c1ccc(-c2cnc3c(-c4ccccn4)c(N)nn3c2)nc1 [Compound V-65]	< 500	< 500
CCN(CCCCN)C(=O)c1ccc(-c2cnc3c(-c4ccccn4)c(N)nn3c2)nc1 [Compound V-74]	< 500	< 500
Nc1nn2cc(-c3ccc(C(=O)N4CCC[C@@H](O)C4)cn3)cnc2c1-c1ccccn1 [Compound V-79]	< 500	< 500
Nc1nn2cc(-c3ccc(C(=O)N4CCC(N)C4)cn3)cnc2c1-c1ccccn1 (stereo not shown) [Compound V-81]	< 500	< 500
Nc1nn2cc(-c3ccc(C(=O)N4CCCCC4CCO)cn3)cnc2c1-c1ccccn1 (stereo not shown) [Compound V-82]	< 500	< 500
Nc1nn2cc(-c3ccc(C(=O)N4CCC(CCO)CC4)cn3)cnc2c1-c1ccccn1 [Compound V-83]	< 500	< 500
CCCN(CCCN)C(=O)c1ccc(-c2cnc3c(-c4ccccn4)c(N)nn3c2)nc1 [Compound V-85]	< 500	< 500
Nc1nn2cc(-c3ccc(C(=O)N4CCC4)cn3)cnc2c1-c1ccccn1 [Compound V-86]	500 to 5000	< 500
CCN(CCC#N)C(=O)c1ccc(-c2cnc3c(-c4ccccn4)c(N)nn3c2)nc1 [Compound V-90]	< 500	< 500
CCCN(CCO)C(=O)c1ccc(-c2cnc3c(-c4ccccn4)c(N)nn3c2)nc1 [Compound V-92]	< 500	< 500
Nc1nn2cc(-c3ccc(C(=O)N4CCC[C@@H]4CO)cn3)cnc2c1-c1ccccn1 [Compound V-93]	< 500	< 500
Cc1cnc2c(-c3cc(NC(C)C)ncn3)c(N)nn2c1 [Compound V-273]	500 to 5000	< 500
Cc1cnc2c(-c3cc(N4CCCCC4)ncn3)c(N)nn2c1 [Compound V-276]	< 500	< 500
Cc1cnc2c(-c3cc(Nc4ccccc4)ncn3)c(N)nn2c1 [Compound V-279]	< 500	< 500
Cc1cnc2c(-c3cc(NC4CCN(Cc5ccccc5)C4)ncn3)c(N)nn2c1 (stereo not shown) [Compound V-286]	500 to 5000	< 500
Cc1cnc2c(-c3cc(NC4CC4)ncn3)c(N)nn2c1 [Compound V-289]	500 to 5000	< 500
Cc1cnc2c(-c3cc(NC4CCC4)ncn3)c(N)nn2c1 [Compound V-290]	500 to 5000	< 500
Cc1cnc2c(-c3cc(NC4CCCCC4)ncn3)c(N)nn2c1 [Compound V-291]	500 to 5000	< 500
CC[C@H](C)Nc1cc(-c2c(N)nn3cc(C)cnc23)ncn1 [Compound V-294]	500 to 5000	< 500
Cc1cnc2c(-c3cc(N[C@@H](C)CO)ncn3)c(N)nn2c1 [Compound V-295]	500 to 5000	< 500

Now from value to compound:

Ki [1] [nM]	Ki [2] [nM]	Compound
500 to 5000	500 to 5000	CCOC(=O)c1c(N)nn2cc(-c3ccc(Cl)cc3)cnc12 [Compound V-24]
500 to 5000	500 to 5000	CCN(C(=O)c1c(N)nn2cc(-c3ccncn3)cnc12)C(C)C [Compound V-33]
500 to 5000	< 500	CN(C)CCNC(=O)c1cccc(-c2cnc3c(-c4ccccn4)c(N)nn3c2)c1 [Compound V-54]
< 500	< 500	CCN(CCN)C(=O)c1ccc(-c2cnc3c(-c4ccccn4)c(N)nn3c2)nc1 [Compound V-62]
< 500	< 500	COC(=O)N1CCN(C(=O)c2ccc(-c3cnc4c(-c5ccccn5)c(N)nn4c3)nc2)CC1 [Compound V-64]
500 to 5000	< 500	CC(C)N(C)C(=O)c1ccc(-c2cnc3c(-c4ccccn4)c(N)nn3c2)nc1 [Compound V-67]
< 500	< 500	COCCN1CCN(C(=O)c2ccc(-c3cnc4c(-c5ccccn5)c(N)nn4c3)nc2)CC1 [Compound V-68]
< 500	< 500	CN1CCCN(C(=O)c2ccc(-c3cnc4c(-c5ccccn5)c(N)nn4c3)nc2)CC1 [Compound V-70]
< 500	< 500	Nc1nn2cc(-c3ccc(C(=O)N4CCCC(CO)C4)cn3)cnc2c1-c1ccccn1 (stereo not shown) [Compound V-71]
< 500	< 500	C#CCN(C)C(=O)c1ccc(-c2cnc3c(-c4ccccn4)c(N)nn3c2)nc1 [Compound V-72]
500 to 5000	< 500	Nc1nn2cc(-c3ccc(C(=O)NCCF)cn3)cnc2c1-c1ccccn1 [Compound V-73]
500 to 5000	< 500	COCCN(C)C(=O)c1ccc(-c2cnc3c(-c4ccccn4)c(N)nn3c2)nc1 [Compound V-75]
< 500	< 500	CCOC(=O)N1CCN(C(=O)c2ccc(-c3cnc4c(-c5ccccn5)c(N)nn4c3)nc2)CC1 [Compound V-76]
< 500	< 500	CCN1CCN(C(=O)c2ccc(-c3cnc4c(-c5ccccn5)c(N)nn4c3)nc2)C(O)C1 (stereo not shown) [Compound V-78]
< 500	< 500	Nc1nn2cc(-c3ccc(C(=O)N4CCSCC4)cn3)cnc2c1-c1ccccn1 [Compound V-87]
< 500	< 500	CCN(C)C(=O)c1ccc(-c2cnc3c(-c4ccccn4)c(N)nn3c2)nc1 [Compound V-89]
< 500	< 500	CN(CCN)C(=O)c1ccc(-c2cnc3c(-c4ccccn4)c(N)nn3c2)nc1 [Compound V-94]
< 500	< 500	COc1ccccc1Nc1cc(-c2c(N)nn3cc(C)cnc23)ncn1 [Compound V-274]
500 to 5000	< 500	Cc1cnc2c(-c3cc(NCC4CC4)ncn3)c(N)nn2c1 [Compound V-277]
500 to 5000	< 500	Cc1cnc2c(-c3cc(NCC4CCCO4)ncn3)c(N)nn2c1 (stereo not shown) [Compound V-278]
500 to 5000	500 to 5000	Nc1nn2cc(Cl)cnc2c1-c1ccccn1 [Compound V-280]
500 to 5000	< 500	CSc1cc(-c2c(N)nn3cc(C)cnc23)ncn1 [Compound V-281]
500 to 5000	< 500	Cc1cnc2c(-c3cc(NC4CCN(Cc5ccccc5)CC4)ncn3)c(N)nn2c1 [Compound V-285]
500 to 5000	< 500	Cc1cnc2c(-c3cc(N[C@H](C)CO)ncn3)c(N)nn2c1 [Compound V-293]

— US7528138B2, “Pyrazolo[1,5-a]pyrimidines useful as inhibitors of protein kinases” (Vertex Pharmaceuticals Incorporated, priority 2004, dated 2009)
